According to PMC8633983, “GTP binding to translation factor eIF2B stimulates its guanine nucleotide exchange activity” (iScience, 2021):

Biological target: T1, eIF2Bγ (in eIF2B complex) (Saccharomyces cerevisiae, UniProt P09032)
T1 construct: gene GCD1; purified eIF2B complex; with eIF2Bε (GCD6) and the other eIF2B subunits
Assay: competition filter binding against […]-GTP

T1 sequence (P09032 whole entry): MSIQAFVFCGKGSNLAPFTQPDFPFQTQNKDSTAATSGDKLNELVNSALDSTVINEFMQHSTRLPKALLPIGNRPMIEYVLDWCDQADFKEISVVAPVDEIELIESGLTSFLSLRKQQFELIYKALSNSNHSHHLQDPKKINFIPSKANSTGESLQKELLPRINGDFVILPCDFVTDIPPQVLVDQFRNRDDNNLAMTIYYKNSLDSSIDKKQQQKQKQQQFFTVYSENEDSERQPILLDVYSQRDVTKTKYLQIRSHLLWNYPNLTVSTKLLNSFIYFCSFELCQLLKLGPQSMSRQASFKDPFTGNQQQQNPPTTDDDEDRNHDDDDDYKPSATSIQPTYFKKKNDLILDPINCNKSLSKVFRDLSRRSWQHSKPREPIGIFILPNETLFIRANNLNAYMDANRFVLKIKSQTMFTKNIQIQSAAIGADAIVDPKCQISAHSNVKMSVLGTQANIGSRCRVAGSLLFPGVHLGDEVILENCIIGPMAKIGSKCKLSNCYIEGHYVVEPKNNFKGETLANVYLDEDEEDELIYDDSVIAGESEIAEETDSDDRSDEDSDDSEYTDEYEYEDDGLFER
T1 sequence (P32501 whole entry partner): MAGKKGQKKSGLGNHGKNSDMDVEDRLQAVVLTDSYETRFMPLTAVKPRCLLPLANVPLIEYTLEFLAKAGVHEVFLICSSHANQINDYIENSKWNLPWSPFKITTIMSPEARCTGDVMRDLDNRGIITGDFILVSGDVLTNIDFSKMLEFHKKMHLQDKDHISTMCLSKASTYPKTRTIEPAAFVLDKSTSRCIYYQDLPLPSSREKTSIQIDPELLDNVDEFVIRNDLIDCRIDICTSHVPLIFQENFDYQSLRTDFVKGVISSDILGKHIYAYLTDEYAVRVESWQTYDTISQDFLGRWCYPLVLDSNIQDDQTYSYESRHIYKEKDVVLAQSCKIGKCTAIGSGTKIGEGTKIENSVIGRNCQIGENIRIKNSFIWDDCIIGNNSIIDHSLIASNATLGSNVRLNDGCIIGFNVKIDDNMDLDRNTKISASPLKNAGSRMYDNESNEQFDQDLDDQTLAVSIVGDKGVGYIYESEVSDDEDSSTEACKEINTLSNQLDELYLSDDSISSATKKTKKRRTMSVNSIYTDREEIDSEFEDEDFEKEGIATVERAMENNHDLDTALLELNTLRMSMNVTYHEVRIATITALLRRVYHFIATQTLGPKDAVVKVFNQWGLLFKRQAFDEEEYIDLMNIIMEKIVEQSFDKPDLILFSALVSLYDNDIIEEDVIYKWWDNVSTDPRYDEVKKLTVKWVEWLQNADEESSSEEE
T1 sequence (P14741 2-305 partner): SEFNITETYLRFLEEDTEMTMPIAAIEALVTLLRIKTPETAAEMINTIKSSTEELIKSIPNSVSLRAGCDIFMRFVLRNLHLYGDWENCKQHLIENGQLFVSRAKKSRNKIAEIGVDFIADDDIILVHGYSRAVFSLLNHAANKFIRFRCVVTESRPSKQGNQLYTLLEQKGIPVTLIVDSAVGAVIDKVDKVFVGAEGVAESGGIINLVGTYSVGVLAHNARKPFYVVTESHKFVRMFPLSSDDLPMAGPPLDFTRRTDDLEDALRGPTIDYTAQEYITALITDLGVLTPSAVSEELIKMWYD
T1 sequence (P32502 whole entry partner): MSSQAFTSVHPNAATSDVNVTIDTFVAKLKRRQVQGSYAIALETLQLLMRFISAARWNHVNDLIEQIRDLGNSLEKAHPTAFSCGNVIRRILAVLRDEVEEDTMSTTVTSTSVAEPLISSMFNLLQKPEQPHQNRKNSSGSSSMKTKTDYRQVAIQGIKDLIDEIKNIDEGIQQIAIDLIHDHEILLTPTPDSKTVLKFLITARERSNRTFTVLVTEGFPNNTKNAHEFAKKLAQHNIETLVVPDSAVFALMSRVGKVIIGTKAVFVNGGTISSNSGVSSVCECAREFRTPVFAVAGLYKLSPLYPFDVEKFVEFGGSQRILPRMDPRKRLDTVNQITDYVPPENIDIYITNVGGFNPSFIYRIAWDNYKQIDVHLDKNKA
T1 sequence (P12754 2-651 partner): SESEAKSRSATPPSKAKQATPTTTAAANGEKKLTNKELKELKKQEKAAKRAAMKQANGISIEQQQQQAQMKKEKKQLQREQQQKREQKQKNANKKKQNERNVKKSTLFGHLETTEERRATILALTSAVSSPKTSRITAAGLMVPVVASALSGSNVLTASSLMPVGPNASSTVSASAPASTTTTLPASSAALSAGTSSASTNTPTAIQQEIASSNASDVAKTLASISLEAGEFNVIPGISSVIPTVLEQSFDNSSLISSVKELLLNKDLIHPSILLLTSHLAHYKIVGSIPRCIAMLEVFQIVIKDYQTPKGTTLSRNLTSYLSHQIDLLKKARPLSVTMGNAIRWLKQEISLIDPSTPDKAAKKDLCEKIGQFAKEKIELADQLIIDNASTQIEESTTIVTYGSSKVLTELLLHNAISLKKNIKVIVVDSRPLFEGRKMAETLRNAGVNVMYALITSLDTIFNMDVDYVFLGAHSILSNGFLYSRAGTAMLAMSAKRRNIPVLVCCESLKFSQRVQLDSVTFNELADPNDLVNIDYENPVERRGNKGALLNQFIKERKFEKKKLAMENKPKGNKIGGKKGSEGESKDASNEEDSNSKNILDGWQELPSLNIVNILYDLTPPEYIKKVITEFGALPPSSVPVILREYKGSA

SMILES | competition filter binding against 32P-GTP
Nc1ncnc2c1ncn2[C@@H]1O[C@H](COP(=O)(O)OP(=O)(O)OP(=O)(O)O)[C@@H](O)[C@H]1O [ATP] | suggesting eIF2B can bind both ATP and GTP, but with a preference for GTP
Nc1nc2c(ncn2[C@@H]2O[C@H](COP(=O)(O)OP(=O)(O)O)[C@@H](O)[C@H]2O)c(=O)[nH]1 [GDP] | GTP was a more effective competitor than ATP or GDP
